# Results reported in the supplement of paper PMC10307832.
# Columns and labels:
# Test in all cases: relative viability (nuclei count vs DMSO), 5 days (fraction); higher = more cells survive
# [1] = test system: A-427
# Outline: (§1)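 Relative viability was taken as the ratio of nuclei in treated wells to nuclei in vehicle wells. Lung cancer cell lines in 1536-well plates received compounds by pin tool one day after seeding, either one drug alone or a fixed anchor-drug dose plus five library-drug doses (not always all listed) in √10 steps. Nuclei were counted on 4× images after 5 days of treatment, and values are medians of duplicate plates.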
# [2] = test system: NCI-H1651
# Outline: as §1
# [3] = test system: NCI-H1755
# Outline: as §1
# [4] = test system: LK-2
# Outline: as §1
# [5] = test system: A549
# Outline: as §1
# [6] = test system: NCI-H1299
# Outline: as §1
# [7] = test system: EBC-1
# Outline: as §1
# [8] = test system: CAL-12T
# Outline: as §1
# [9] = test system: Calu-6
# Outline: as §1
# [10] = test system: NCI-H1703
# Outline: as §1
# [11] = test system: IA-LM
# Outline: as §1
smiles,measurement,setting,value
Cc1cn(-c2cc(NC(=O)c3ccc(C)c(Nc4nccc(-c5cccnc5)n4)c3)cc(C(F)(F)F)c2)cn1 [Nilotinib] + C[C@@H](Oc1cc(-c2cnn(C3CCNCC3)c2)cnc1N)c1c(Cl)ccc(F)c1Cl [Crizotinib] (partner 1 µM),relative viability,[1]; first compound 0.001 µM,0.715
same,relative viability,[1]; first compound 0.01 µM,1.25
same,relative viability,[1]; first compound 0.03162 µM,0.548
same,relative viability,[1]; first compound 0.1 µM,0.546
same,relative viability,[2]; first compound 0.001 µM,0.853
same,relative viability,[2]; first compound 0.003162 µM,0.986
same,relative viability,[2]; first compound 0.01 µM,1
same,relative viability,[2]; first compound 0.03162 µM,0.838
same,relative viability,[2]; first compound 0.1 µM,0.816
same,relative viability,[3]; first compound 0.001 µM,0.778
same,relative viability,[3]; first compound 0.003162 µM,0.962
same,relative viability,[3]; first compound 0.01 µM,1.2
same,relative viability,[3]; first compound 0.03162 µM,0.666
same,relative viability,[3]; first compound 0.1 µM,0.745
same,relative viability,[4]; first compound 0.001 µM,0.244
same,relative viability,[4]; first compound 0.003162 µM,0.276
same,relative viability,[4]; first compound 0.01 µM,0.206
same,relative viability,[4]; first compound 0.03162 µM,0.251
same,relative viability,[4]; first compound 0.1 µM,0.241
same,relative viability,[5]; first compound 0.001 µM,0.916
same,relative viability,[5]; first compound 0.003162 µM,0.976
same,relative viability,[5]; first compound 0.01 µM,1.09
same,relative viability,[5]; first compound 0.03162 µM,0.501
same,relative viability,[5]; first compound 0.1 µM,0.547
same,relative viability,[6]; first compound 0.001 µM,0.925
same,relative viability,[6]; first compound 0.003162 µM,1.01
same,relative viability,[6]; first compound 0.01 µM,1.07
same,relative viability,[6]; first compound 0.03162 µM,0.918
same,relative viability,[6]; first compound 0.1 µM,0.969
same,relative viability,[7]; first compound 0.001 µM,0.216
same,relative viability,[7]; first compound 0.003162 µM,0.202
same,relative viability,[7]; first compound 0.01 µM,0.174
same,relative viability,[7]; first compound 0.03162 µM,0.157
same,relative viability,[7]; first compound 0.1 µM,0.164
same,relative viability,[8]; first compound 0.003162 µM,0.519
same,relative viability,[8]; first compound 0.01 µM,0.902
same,relative viability,[8]; first compound 0.03162 µM,0.345
same,relative viability,[8]; first compound 0.1 µM,0.6
same,relative viability,[9]; first compound 0.001 µM,0.677
same,relative viability,[9]; first compound 0.003162 µM,0.798
same,relative viability,[9]; first compound 0.01 µM,1.19
same,relative viability,[9]; first compound 0.03162 µM,0.548
same,relative viability,[9]; first compound 0.1 µM,0.637
same,relative viability,[10]; first compound 0.003162 µM,0.403
same,relative viability,[10]; first compound 0.01 µM,0.291
same,relative viability,[10]; first compound 0.03162 µM,0.191
same,relative viability,[10]; first compound 0.1 µM,0.175
same,relative viability,[11]; first compound 0.003162 µM,0.77
same,relative viability,[11]; first compound 0.01 µM,0.835
same,relative viability,[11]; first compound 0.03162 µM,0.637
same,relative viability,[11]; first compound 0.1 µM,0.659
